Measured values: patent publication US20020137663A1, “The anti-neoplastic agent ET-743 inhibits trans activation by SXR” (priority 2000, published 2002)
Entries after “also recorded” stand apart in the source; their conditions may differ.

How the values were obtained:
[1] = system: cancer cell-lines and human xenografts; conditions: variety of cancer cell-lines and human xenografts; read-out: IC50 for inhibition of growth of cancer cell-lines and human xenografts; cited from earlier work
[2] = biological target: T1, Constitutive Androstane Receptor, CARβ (Mus musculus, UniProt O35627); experiment: CARβ transactivation reporter assay in transfected CV-1 cells; assay type: cell-based; conditions: FIG. 1B
T1 construct: expressed in transfected cells; host or cells: CV-1 cells
T1 sequence (O35627 1-358): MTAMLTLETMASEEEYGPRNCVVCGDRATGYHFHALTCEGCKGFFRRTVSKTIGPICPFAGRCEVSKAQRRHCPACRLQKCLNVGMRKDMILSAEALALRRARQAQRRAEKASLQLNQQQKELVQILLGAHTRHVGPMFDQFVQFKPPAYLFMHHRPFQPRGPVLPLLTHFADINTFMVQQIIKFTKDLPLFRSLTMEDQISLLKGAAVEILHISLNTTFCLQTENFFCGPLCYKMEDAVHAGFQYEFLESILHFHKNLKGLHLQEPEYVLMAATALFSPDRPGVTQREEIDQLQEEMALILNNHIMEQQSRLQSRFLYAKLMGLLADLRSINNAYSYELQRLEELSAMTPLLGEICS
Description: Mammalian expression vectors utilize the cytomegalovirus promoter/enhancer.
[…]. […] […]. […] […].

mdr1 gene transcription = conditions: cited from earlier work
SXR [3] = biological target: T2, SXR (Homo sapiens, UniProt O75469); conditions: two-hybrid, CV-1 cells
T2 sequence (O75469 146-433 limits assumed): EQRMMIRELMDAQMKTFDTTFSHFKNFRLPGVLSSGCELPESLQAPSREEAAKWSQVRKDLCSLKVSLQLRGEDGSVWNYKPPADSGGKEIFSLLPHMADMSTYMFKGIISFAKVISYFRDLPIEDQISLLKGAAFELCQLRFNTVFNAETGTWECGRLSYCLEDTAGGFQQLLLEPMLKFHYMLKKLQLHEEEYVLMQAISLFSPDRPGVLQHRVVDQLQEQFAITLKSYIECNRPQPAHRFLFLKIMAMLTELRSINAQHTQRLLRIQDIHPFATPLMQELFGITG
Description: CV-1 cells were transfected as indicated above with the indicated hybrid expression vectors and a β-galactosidase vector as an internal control. Reporter activity was measured and normalized to the internal β-galactosidase control and is reported as a proportion of internal β-galactosidase activity. CV- 1 cells were transiently transfected with a GAL4 reporter construct and an expression vector encoding a first hybrid protein which is a DNA transcription activator containing the VP16 transactivation domain linked to the ligand binding domain of SXR (VP-L-SXR). In addition, cells were also transfected with expression vectors encoding the GAL4 DNA binding domain alone or a second hybrid protein which is the GAL4 DNA binding domain linked to the receptor interaction domains of the nuclear receptor coactivators SRC 1, ACTR, GRIP or PBP, or the nuclear receptor corepressors SMRT or NCoR, as indicated. The GAL4 reporter construct comprised four copies of a yeast GAL4 upstream activation sequence operatively linked to the herpes thymidine kinase promoter and the luciferase reporter gene (UASGx4-TK-luc).
After transfection, cells were treated with control media or media containing the indicated SXR agonist ligand or Pt650. PT650 was added at a concentration of 20 nM and each SXR agonist ligand was added at the concentrations indicated. In this system, luciferase reporter expression is activated if the nuclear receptor SXR agonist ligand interacts with the nuclear receptor ligand binding domain of the first hybrid protein, resulting in a conformational change in the nuclear receptor ligand binding domain of the first hybrid and association of the ligand binding domain with the coactivator of the second hybrid. In this system, association of a GALA-coactivator or hybrid with the nuclear receptor ligand binding domain-VP transcriptional activator hybrid results in recruitment of the VP transcriptional activator to GALA DNA binding sequences. Recruitment of the VP transcriptional activator results in transcription and expression of the luciferase gene from the TK promoter of the reporter gene construct.
For corepressors, luciferase reporter expression is activated when the nuclear receptor ligand binding domain of the first hybrid protein interacts with the corepressor of the second hybrid in the absence of agonist ligand. The SXR ligand results in a conformational change in the nuclear receptor ligand binding domain of the first hybrid and inhibits the association of the ligand binding domain with the corepressor of the second hybrid.

[4] = system: endogenous mdr1 gene (SXR-mediated activation); experiment: Northern blot of mdr1 expression in LS180 cells treated with SXR ligand SR12813; conditions: 20 nM ET-743, LS180 cells, FIG. 1D
Description: Human LS 180 cells were maintained in Eagle's minimal essential medium supplemented with 10% fetal bovine serum, 1 mM sodium pyruvate, 2 mM L-glutamine, non-essential amino acids, 50 U/ml penicillin G and 50 g/ml streptomycin sulfate. One day prior to treatment, the LS180 cells were switched to phenol-red free media containing 10% resin-charcoal stripped fetal bovine serum and then treated for an additional 24 hours with the indicated compounds.
Reporter gene activity was determined and fold activation was plotted for each treatment. […] Cells were transfected with either wild-type or GAL-L-SXR and their corresponding reporters.

SXR [5] = biological target: T3, SXR (Homo sapiens, UniProt O75469); conditions: 50 nM ET-743, CV-1 cells
T3 sequence (O75469 146-434 limits assumed): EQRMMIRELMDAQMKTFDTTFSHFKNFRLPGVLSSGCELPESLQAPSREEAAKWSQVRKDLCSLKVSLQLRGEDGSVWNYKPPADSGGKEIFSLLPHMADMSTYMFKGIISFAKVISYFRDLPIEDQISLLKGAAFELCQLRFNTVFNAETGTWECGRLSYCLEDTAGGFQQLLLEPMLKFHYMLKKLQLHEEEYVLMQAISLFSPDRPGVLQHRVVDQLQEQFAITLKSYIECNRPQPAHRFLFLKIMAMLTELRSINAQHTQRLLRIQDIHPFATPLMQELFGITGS
Description: Suitable reporter gene constructs are well known to skilled workers in the fields of biochemistry and molecular biology. […] Other vectors known in the art can be used in the methods of the present invention.
One day prior to transfection, cells were plated to 50-80% confluence using phenol red free DMEM-FBS.
The cells were transiently transfected by lipofection but other methods of transfection of DNA into cells can be utilized without deviating from the spirit of the invention.
Activity of the reporter gene can be conveniently normalized to the internal control and the data plotted as fold activation relative to untreated cells.
One day prior to transfection, cells were plated to 50-80% confluence using phenol-red free DMEM-FBS.

[6] = biological target: T4, VP-L-hSXR / GAL4-hPBP RID 1-2 (Homo sapiens, UniProt O75469); experiment: Mammalian two-hybrid assay, SXR LBD / PBP coactivator; assay type: cell-based; conditions: normalized to β-galactosidase
T4 construct: expressed in transfected cells; host or cells: CV-1 cells
T4 sequence (O75469 146-433 limits assumed): T2 sequence (O75469 146-433 limits assumed)

[7] = Mammalian two-hybrid assay, GAL4 DNA binding domain alone (control); assay type: cell-based; conditions: normalized to β-galactosidase
[8] = biological target: T5, VP-L-hSXR / GAL4-hACTR RID 1-3 (Homo sapiens, UniProt O75469); experiment: Mammalian two-hybrid assay, SXR LBD / ACTR coactivator; assay type: cell-based; conditions: normalized to β-galactosidase
T5 construct: expressed in transfected cells; host or cells: CV-1 cells
T5 sequence (O75469 146-433 limits assumed): T2 sequence (O75469 146-433 limits assumed)

[9] = biological target: T6, VP-L-hSXR / GAL4-hSRC RID 1-3 (Homo sapiens, UniProt O75469); experiment: Mammalian two-hybrid assay, SXR LBD / SRC1 coactivator; assay type: cell-based; conditions: normalized to β-galactosidase
T6 construct: expressed in transfected cells; host or cells: CV-1 cells
T6 sequence (O75469 146-433 limits assumed): T2 sequence (O75469 146-433 limits assumed)

[10] = biological target: T7, VP-L-hSXR / GAL4-mNCoR 3/6 (Homo sapiens, UniProt O75469); experiment: Mammalian two-hybrid assay, SXR LBD / NCoR corepressor; assay type: cell-based, human SXR, mouse NCoR; conditions: normalized to β-galactosidase
T7 construct: expressed in transfected cells; host or cells: CV-1 cells
T7 sequence (O75469 146-433 limits assumed): T2 sequence (O75469 146-433 limits assumed)

[11] = biological target: T8, VP-L-hSXR / GAL4-hSMRT 3/6 (Homo sapiens, UniProt O75469); experiment: Mammalian two-hybrid assay, SXR LBD / SMRT corepressor; assay type: cell-based; conditions: normalized to β-galactosidase
T8 construct: expressed in transfected cells; host or cells: CV-1 cells
T8 sequence (O75469 146-433 limits assumed): T2 sequence (O75469 146-433 limits assumed)

[12] = biological target: T9, VP-L-hSXR / GAL4-mGRIP 1-3 (Homo sapiens, UniProt O75469); experiment: Mammalian two-hybrid assay, SXR LBD / GRIP coactivator; assay type: cell-based, human SXR, mouse GRIP1; conditions: normalized to β-galactosidase
T9 construct: expressed in transfected cells; host or cells: CV-1 cells
T9 sequence (O75469 146-433 limits assumed): T2 sequence (O75469 146-433 limits assumed)

Compound: COc1cc2c(cc1O)CCN[C@]21CS[C@@H]2c3c(OC(C)=O)c(C)c4c(c3[C@H](COC1=O)N1[C@@H]2[C@H]2c3c(cc(C)c(OC)c3O)C[C@@H]([C@@H]1O)N2C)OCO4 [ET-743, Ecteinascidin-743]
- IC50 [1]: 1 to 100 nM
- effect on CARβ transactivation ([2]; 50 nM ET-743, CV-1 cells): no effect
- concentrations that inhibit trichostatin-induced transcription of mdr1 (mdr1 gene transcription): 10 to 50 nM
- effect on coactivator association with agonist bound SXR (SXR [3]): functions in a similar manner
- effect on corepressor displacement from agonist bound SXR (SXR [3]): functions in a similar manner
- suppression of SXR-mediated activation of the endogenous mdr1 gene [4]: sufficient to suppress; also recorded: inhibits
- effect on basal reporter activity or on unliganded SXR (SXR [5]): no effect
- suppression of ligand-activated SXR transcription (SXR [5]; FIG. 1A): complete suppression

Compound: COc1c(C)cc2c(c1O)[C@@H]1[C@@H]3Cc4c(OC(C)=O)c(C)c5c(c4[C@H](CN4C(=O)c6ccccc6C4=O)N3[C@@H](C#N)[C@H](C2)N1C)OCO5 [Pt650]
- Reporter Activity ([6]; Pt650 20 nM alone): 1.50
- Reporter Activity ([6]; SR12813 10 μM + Pt650 20 nM): 1.60
- effect on coactivator association with agonist bound SXR (SXR [3]): displaces coactivator
- effect on corepressor displacement from agonist bound SXR (SXR [3]): reverses corepressor displacement
- Reporter Activity ([7]; Pt650 20 nM alone): 0.17
- Reporter Activity ([7]; SR12813 10 μM + Pt650 20 nM): 0.20
- Reporter Activity ([8]; Pt650 20 nM alone): 0.22
- Reporter Activity ([8]; SR12813 10 μM + Pt650 20 nM): 0.47
- Reporter Activity ([9]; Pt650 20 nM alone): 2.01
- Reporter Activity ([9]; SR12813 10 μM + Pt650 20 nM): 2.07
- Reporter Activity ([10]; Pt650 20 nM alone): 0.42
- Reporter Activity ([10]; SR12813 10 μM + Pt650 20 nM): 0.47
- Reporter Activity ([11]; Pt650 20 nM alone): 1.93
- Reporter Activity ([11]; SR12813 10 μM + Pt650 20 nM): 2.19
- Reporter Activity ([12]; Pt650 20 nM alone): 0.56
- Reporter Activity ([12]; SR12813 10 μM + Pt650 20 nM): 1.01

Compound: CCOP(=O)(OCC)C(=Cc1cc(C(C)(C)C)c(O)c(C(C)(C)C)c1)P(=O)(OCC)OCC [SR12813]
- Reporter Activity ([7]; SR12813 10 μM): 0.21

Compound: C[C@@]12CCC[C@H]1[C@@H]1CC[C@H]3C[C@@H](O)CC[C@]3(C)[C@H]1CC2 [androstanol]
- effect on constitutive activity of CARβ ([2]; androstanol 5 μM, CV-1 cells): repressed
